Here are results for 9 compounds from patent US20130317045A1, “THIENOPYRIDINE AND THIENOPYRIMIDINE COMPOUNDS AND METHODS OF USE THEREOF” (AMBIT BIOSCIENCES CORPORATION, priority 2010, published 2013).

pIC50, pKd: −log10 of the molar value. A value given as a limit tells only on which side of the number the result lay.

Assay [1] has as its system GM-CSFR/JAK2/STAT5 pathway in CSTF-1 cells. Kind of assay: CSTF-1 cell-based reporter assay (beta-lactamase, GM-CSF stimulated). More on the design: species or system human. The following applies: Homo sapiens; GM-CSF at 2 ng/mL, 4 hours; read-out: Cell Assay: CS TF-1 reporter assay IC50. As to the method:
CSTF-1 Cell-Based Reporter Assay
CSTF-1 cells are derived from the human erythroleukemia cell line that is growth dependent on GM-CSF and has an intact GM-CSFR/JAK2/STAT5 pathway. The cell line contains stably integrated beta-lactamase reporter gene under the control of the […] (irf 1) response element recognized by the activated transcription factor STATS. csTF-1 cells (Invitrogen K1219) were washed with assay media (97% OPTIMEM/ 0.5% dialyzed FBS/0.1 mM NEAA/1 mM Na pyr/P/S) and seeded in the same media at 5×10^5 cell/mL in T150 flask. After 16 hour incubation, cells were seeded at 2×10^5 cell/well in 50 μl volume, into Costar, clear bottom, 96-well assay plates. Serial dilutions of compounds were added to the plates with final DMSO concentration at 0.5% and GM-CSF at 2 ng/mL and the plates were then incubated at […] and 5% CO2 for 4 hours. The plates were brought to room temperature before adding Substrate Mixture according to manufacturer's protocol (Invitrogen, Catalog #K1085). The assay plates containing the substrate mixture were incubated in the dark at room temperature for 2 hours. Blue and green fluorescence was measured with excitation at 409 nm and emission at 460 nm (for blue) and excitation at 409 nm and emission at 530 nm (for green) using Spectra Max Gemini EM.

Another assay concerns the target T1, JAK2 (Homo sapiens, UniProt O60674).
T1 construct: made in house
Kind of assay: Competition binding assay, JAK2. The text has this:
(§1) Competition Binding Assay to Determine Binding Constants (Kd) of the Compounds Against JAK Kinases
(§2) Competition binding assays used herein were developed, validated and performed as described in Fabian et al., Nature Biotechnology 2005, 23,329-336. Kinases were produced as fusions to T7 phage (See, Fabian et al. or WO04/015142) or alternatively, the kinases were expressed in HEK-293 cells and subsequently tagged with DNA for PCR detection (See, WO08/005310). For the binding assays, streptavidin-coated magnetic beads were treated with biotinylated affinity ligands for 30 min at rt to generate affinity resins. The liganded beads were blocked with excess biotin and washed with blocking buffer (SeaBlock (Pierce), 1% BSA, 0.05% Tween 20, 1 mM DTT) to remove unbound ligand and to reduce non-specific binding. Binding reactions were assembled by combining kinase, liganded affinity beads, and test compounds in 1× binding buffer (20% SeaBlock, 0.17×PBS, 0.05% Tween 20, 6 mM DTT). Test compounds were prepared as 100× stocks in DMSO and rapidly diluted into the aqueous environment. DMSO was added to control assays lacking a test compound. Primary screen interactions were performed in polypropylene 384-well plates in a final volume of 34 μL, while Kd determinations were performed in polystyrene 96-well plates in a final volume of 135 μL. The assay plates were incubated at room temperature with shaking for 1 hour, long enough for binding reactions to reach equilibrium, and the affinity beads were washed extensively with wash buffer (1× PBS, 0.05% Tween 20) to remove unbound protein. The beads were then resuspended in elution buffer (1× PBS, 0.05% Tween 20, 2 μM non-biotinylated affinity ligand) and incubated at room temperature with shaking for 30 min. The kinase concentration in the eluates was measured by quantitative PCR. Each kinase was tested individually against each compound. Kds were determined using eleven serial threefold dilutions. A selectivity score, which is a quantitative measure of selectivity of a compound against a panel of enzymes, may be calculated for a compound by dividing the number of enzymes for which a compound meets a set criteria, (for example, a binding constant of 100 nM or less), by the total number of enzymes tested.

The target in the next assay is T2, JAK3 (Homo sapiens, UniProt P52333).
T2 construct: made in house
T2 sequence (P52333 1-1124): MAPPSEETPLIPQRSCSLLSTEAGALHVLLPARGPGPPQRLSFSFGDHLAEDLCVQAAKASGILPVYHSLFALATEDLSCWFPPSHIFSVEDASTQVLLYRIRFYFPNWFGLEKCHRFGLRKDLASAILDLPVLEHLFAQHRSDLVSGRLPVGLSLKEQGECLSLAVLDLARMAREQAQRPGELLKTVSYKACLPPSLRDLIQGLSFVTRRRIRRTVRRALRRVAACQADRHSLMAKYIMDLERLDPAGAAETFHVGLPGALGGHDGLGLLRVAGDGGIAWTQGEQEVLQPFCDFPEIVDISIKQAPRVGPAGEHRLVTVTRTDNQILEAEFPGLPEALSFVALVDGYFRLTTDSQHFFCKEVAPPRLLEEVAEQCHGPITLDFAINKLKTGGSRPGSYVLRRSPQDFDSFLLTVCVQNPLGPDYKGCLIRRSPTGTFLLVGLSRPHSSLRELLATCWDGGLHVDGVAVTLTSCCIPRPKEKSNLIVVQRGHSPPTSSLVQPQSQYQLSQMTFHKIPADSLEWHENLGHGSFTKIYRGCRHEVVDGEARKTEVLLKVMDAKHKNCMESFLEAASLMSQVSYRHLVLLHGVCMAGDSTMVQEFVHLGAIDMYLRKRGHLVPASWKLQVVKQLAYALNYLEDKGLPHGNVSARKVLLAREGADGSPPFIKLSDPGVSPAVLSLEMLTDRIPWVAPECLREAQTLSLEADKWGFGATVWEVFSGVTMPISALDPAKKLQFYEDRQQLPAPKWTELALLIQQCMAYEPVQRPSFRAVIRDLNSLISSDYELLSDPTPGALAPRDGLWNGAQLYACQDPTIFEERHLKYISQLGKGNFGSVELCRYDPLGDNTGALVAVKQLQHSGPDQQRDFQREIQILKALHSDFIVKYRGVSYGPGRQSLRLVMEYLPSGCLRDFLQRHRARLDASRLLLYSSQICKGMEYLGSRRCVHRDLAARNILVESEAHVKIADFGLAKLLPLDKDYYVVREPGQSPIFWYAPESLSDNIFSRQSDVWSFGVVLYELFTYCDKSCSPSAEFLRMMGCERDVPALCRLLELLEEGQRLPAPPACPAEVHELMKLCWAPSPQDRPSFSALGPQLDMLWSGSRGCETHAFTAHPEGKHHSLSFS
Nature of the assay: Competition binding assay, JAK3.
Excerpt: as §1, §2

The target of the next assay is T3, TYK2 (Homo sapiens, UniProt P29597).
T3 construct: made in house
T3 sequence (P29597 whole entry): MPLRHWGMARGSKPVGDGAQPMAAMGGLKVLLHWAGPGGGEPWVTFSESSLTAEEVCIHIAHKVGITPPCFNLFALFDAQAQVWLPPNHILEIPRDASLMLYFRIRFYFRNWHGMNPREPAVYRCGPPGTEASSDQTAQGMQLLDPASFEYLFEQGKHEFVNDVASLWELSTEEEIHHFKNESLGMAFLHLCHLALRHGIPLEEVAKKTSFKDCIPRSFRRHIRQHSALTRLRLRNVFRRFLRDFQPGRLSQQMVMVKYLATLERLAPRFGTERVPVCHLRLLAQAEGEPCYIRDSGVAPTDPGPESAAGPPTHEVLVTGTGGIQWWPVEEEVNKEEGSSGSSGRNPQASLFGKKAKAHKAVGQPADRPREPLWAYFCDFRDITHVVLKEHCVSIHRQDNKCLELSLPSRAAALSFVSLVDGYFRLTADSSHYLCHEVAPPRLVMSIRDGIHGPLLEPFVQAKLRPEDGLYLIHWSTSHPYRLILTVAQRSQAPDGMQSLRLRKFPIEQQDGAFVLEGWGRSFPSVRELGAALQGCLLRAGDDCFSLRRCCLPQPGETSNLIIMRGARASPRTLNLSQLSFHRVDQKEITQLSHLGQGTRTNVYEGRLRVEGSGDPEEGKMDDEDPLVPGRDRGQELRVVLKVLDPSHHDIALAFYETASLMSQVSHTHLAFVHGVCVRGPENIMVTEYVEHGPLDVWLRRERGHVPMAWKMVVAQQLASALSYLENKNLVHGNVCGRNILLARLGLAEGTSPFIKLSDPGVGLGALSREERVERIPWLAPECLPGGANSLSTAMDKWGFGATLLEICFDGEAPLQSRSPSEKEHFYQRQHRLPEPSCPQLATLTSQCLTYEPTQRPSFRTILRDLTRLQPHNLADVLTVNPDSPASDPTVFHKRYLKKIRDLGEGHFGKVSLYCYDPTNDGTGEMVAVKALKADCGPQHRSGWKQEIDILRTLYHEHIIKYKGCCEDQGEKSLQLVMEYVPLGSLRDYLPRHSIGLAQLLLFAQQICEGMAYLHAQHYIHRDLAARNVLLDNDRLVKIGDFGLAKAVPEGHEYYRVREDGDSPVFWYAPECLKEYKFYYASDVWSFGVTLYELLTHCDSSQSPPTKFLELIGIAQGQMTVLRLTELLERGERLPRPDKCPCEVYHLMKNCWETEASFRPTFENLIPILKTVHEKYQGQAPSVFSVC
Kind of assay: Competition binding assay, TYK2.
Excerpt: as §1, §2

Assay [2] concerns distinct kinases tested excluding mutant variants, typically 359 or 386 kinases. Nature of the assay: Kinase selectivity score from competition binding panel. The following applies: compound at 10 μM; fraction of kinases with inhibition of 90% or greater. The procedure:
as §2

T1 sequence (O60674 whole entry): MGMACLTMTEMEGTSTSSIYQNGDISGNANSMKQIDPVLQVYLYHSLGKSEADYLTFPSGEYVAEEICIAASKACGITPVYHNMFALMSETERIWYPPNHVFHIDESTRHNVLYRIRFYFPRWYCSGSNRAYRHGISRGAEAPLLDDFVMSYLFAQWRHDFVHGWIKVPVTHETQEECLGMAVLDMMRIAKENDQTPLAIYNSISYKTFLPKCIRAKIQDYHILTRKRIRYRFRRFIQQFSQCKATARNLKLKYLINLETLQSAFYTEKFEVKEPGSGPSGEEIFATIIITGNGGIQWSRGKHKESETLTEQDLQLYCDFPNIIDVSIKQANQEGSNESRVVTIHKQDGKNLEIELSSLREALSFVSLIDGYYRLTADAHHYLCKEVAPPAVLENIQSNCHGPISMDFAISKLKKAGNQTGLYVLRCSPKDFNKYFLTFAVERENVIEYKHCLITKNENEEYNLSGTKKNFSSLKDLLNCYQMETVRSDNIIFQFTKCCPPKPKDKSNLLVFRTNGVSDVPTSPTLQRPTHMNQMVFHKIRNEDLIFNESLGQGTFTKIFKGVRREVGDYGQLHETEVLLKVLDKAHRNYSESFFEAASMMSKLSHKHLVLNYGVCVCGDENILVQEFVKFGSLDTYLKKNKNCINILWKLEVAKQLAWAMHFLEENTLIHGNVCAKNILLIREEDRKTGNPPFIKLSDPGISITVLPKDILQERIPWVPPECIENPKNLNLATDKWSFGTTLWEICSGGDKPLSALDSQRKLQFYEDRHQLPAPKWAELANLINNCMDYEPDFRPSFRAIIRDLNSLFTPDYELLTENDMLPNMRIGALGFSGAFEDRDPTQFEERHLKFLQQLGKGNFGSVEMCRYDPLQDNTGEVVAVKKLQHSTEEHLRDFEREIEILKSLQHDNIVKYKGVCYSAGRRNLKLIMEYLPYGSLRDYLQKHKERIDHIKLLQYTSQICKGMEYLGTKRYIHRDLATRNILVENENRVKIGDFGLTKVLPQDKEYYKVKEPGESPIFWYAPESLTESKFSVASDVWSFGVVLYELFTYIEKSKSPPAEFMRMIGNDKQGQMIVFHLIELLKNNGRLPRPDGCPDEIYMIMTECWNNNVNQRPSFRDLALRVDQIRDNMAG

In the case of `Fc1ccc(C(F)(F)c2nc(Nc3cc[nH]n3)c3ccsc3n2)cc1` [Example 2, 2-(difluoro(4-fluorophenyl)methyl)-N-(1H-pyrazol-3-yl)thieno[2,3-d]pyrimidin-4-amine], the pIC50 (as a rule, the negative decadic logarithm of the IC50, by convention in mol/L) in assay [1] was at least 7.00. In addition, the pKd – broadly, −log10 of the Kd, conventionally taken in molar units – was at least 9.00 on JAK2, 7.00 to 8.00 at JAK3 and at least 8.00 on TYK2. Further, the “S-Score: S(10) at 10 μM” value in assay [2] was “A (A ≦ 0.3)”.

With `Cc1cc(Nc2nc(C(=O)c3ccc(F)cc3)nc3cc(C(C)(C)C)sc23)n[nH]1` [Example 26, (6-tert-butyl-4-(5-methyl-1H-pyrazol-3-ylamino)thieno[3,2-d]pyrimidin-2-yl)(4-fluorophenyl) methanone], the pIC50 in assay [1] is 6.30 to 7.00. For the same compound, the pKd at JAK2 was 8.00 to 9.00; on JAK3, below 7.00; on TYK2, below 7.00. Besides, in assay [2], the “S-Score: S(10) at 10 μM” value is given as “A (A ≦ 0.3)”.

As to `CC(C)(C)c1cc2nc(C(=O)c3ccc(F)cc3)nc(Nc3cc[nH]n3)c2s1` [Example 28, (4-(1H-pyrazol-3-ylamino)-6-tert-butylthieno[3,2-d]pyrimidin-2-yl)(4-fluorophenyl)methanone], in assay [1], the pIC50 was 6.30 to 7.00. The values for the pKd at JAK2, on JAK3 and at TYK2 were 8.00 to 9.00, below 7.00 and below 7.00, respectively. For the same compound, the “S-Score: S(10) at 10 μM” value in assay [2] was “A (A ≦ 0.3)”.

Regarding `COC(c1ccc(F)cc1)c1nc(Nc2cc(C)[nH]n2)c2sccc2n1` (stereo not drawn) [Example 19, 2-((4-fluorophenyl)(methoxy)methyl)-N-(5-methyl-1H-pyrazol-3-yl)thieno[3,2-d]pyrimidin-4-amine], the pIC50 in assay [1] was 6.30 to 7.00. Further, the values for the pKd on JAK2, at JAK3 and on TYK2 were 8.00 to 9.00, 7.00 to 8.00 and 7.00 to 8.00, respectively. Also, the “S-Score: S(10) at 10 μM” value in assay [2] is reported as “A (A ≦ 0.3)”.

Take `Cc1cc(Nc2nc(C(F)(F)c3ccc(F)cn3)nc3ccsc23)n[nH]1` [Example 33, 2-(difluoro(5-fluoropyridin-2-yl)methyl)-N-(5-methyl-1H-pyrazol-3-yl)thieno[3,2-d]pyrimidin-4-amine]: in assay [1], the pIC50 is at least 7.00. In addition, the pKd is at least 9.00 on JAK2, at least 8.00 on JAK3 and at least 8.00 on TYK2. In addition, in assay [2], the “S-Score: S(10) at 10 μM” value is recorded as “C (0.4 < C ≦ 0.5)”.

On to `Cc1cc2c(Nc3cc[nH]n3)nc(C(F)(F)c3ccc(F)cc3)nc2s1` [Example 15, 2-(difluoro(4-fluorophenyl)methyl)-6-methyl-N-(1H-pyrazol-3-yl)thieno[2,3-d]pyrimidin-4-amine], for which the pIC50 in assay [1] is 6.30 to 7.00. In addition, the figures for the pKd on JAK2, at JAK3 and at TYK2 were 8.00 to 9.00, 7.00 to 8.00 and below 7.00, respectively. Besides, the “S-Score: S(10) at 10 μM” value in assay [2] is given as “A (A ≦ 0.3)”.

Regarding `Cc1cc(Nc2nc(C(O)c3ccc(F)cc3)nc3c(C)csc23)n[nH]1` (stereo not drawn) [Example 23, (4-fluorophenyl)(7-methyl-4-(5-methyl-1H-pyrazol-3-ylamino)thieno[3,2-d]pyrimidin-2-yl)methanol], in assay [1], the pIC50 was 6.30 to 7.00. The pKd on JAK2 is at least 9.00; on JAK3 it was 7.00 to 8.00; on TYK2, at least 8.00. Moreover, in assay [2], the “S-Score: S(10) at 10 μM” value was “A (A ≦ 0.3)”.

On to `Cc1cc(Nc2nc(C(=O)c3ccc(F)cc3)nc3scc(C)c23)n[nH]1` [Example 10, (4-fluorophenyl)(5-methyl-4-(5-methyl-1H-pyrazol-3-ylamino)thieno[2,3-d]pyrimidin-2-yl)methanone], for which the pIC50 in assay [1] is below 6.30. Also, the pKd at JAK2 is below 8.00; at JAK3 it was below 7.00; at TYK2, below 7.00. Also, in assay [2], the “S-Score: S(10) at 10 μM” value was “A (A ≦ 0.3)”.

For `Cc1cc(Nc2nc(C(=O)c3ccc(F)cc3)nc3sccc23)n[nH]1` [Example 3, (4-fluorophenyl)(4-(5-methyl-1H-pyrazol-3-ylamino)thieno[2,3-d]pyrimidin-2-yl)methanone], the pIC50 in assay [1] is at least 7.00. The pKd on JAK2 was at least 9.00; on JAK3, at least 8.00; on TYK2 it was 7.00 to 8.00. The “S-Score: S(10) at 10 μM” value in assay [2] is “B (0.3 < B ≦ 0.4)”.
